Measurements: PubChem BioAssay (NCI)
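Test compounds were applied to cells in 96-well plates for 48 hours at 5 doses. TGI marks complete inhibition of growth.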

Tests used:
Assay in all cases: inhibition of tumour cell growth, NCI panel, 48 h
RPMI-8226 leukemia = test system: RPMI-8226 leukemia
MALME-3M melanoma = test system: MALME-3M melanoma
SK-OV-3 ovarian = test system: SK-OV-3 ovarian
NCI-H226 lung = test system: NCI-H226 lung
SN12C renal = test system: SN12C renal
786-0 renal = test system: 786-0 renal
IGROV1 ovarian = test system: IGROV1 ovarian
NCI/ADR-RES ovarian = test system: NCI/ADR-RES ovarian
SW-620 colon = test system: SW-620 colon
OVCAR-3 ovarian = test system: OVCAR-3 ovarian

Compound | TGI (RPMI-8226 leukemia) [µM] | TGI (MALME-3M melanoma) [µM] | TGI (SK-OV-3 ovarian) [µM] | TGI (NCI-H226 lung) [µM] | TGI (SN12C renal) [µM] | TGI (786-0 renal) [µM] | TGI (IGROV1 ovarian) [µM] | TGI (NCI/ADR-RES ovarian) [µM] | TGI (SW-620 colon) [µM] | TGI (OVCAR-3 ovarian) [µM]
C=C(C)CNC(=S)N(N)c1ccc2ccccc2c1 | > 100 | > 100 | > 100 | > 100 | > 100 | > 100 | > 100 | > 100 | > 100 | > 100
Oc1cc(Br)cc2cc(Cl)cnc12 | 26 | 30 | > 68.9 | 64.4 | 45.1 | 38.8 | 27.1 | 10 | > 46.2 | 11.2
Brc1ccc2c(-c3csc(-c4c[nH]c5ccccc45)n3)c[nH]c2c1 | 46.6 | 31 | 44.8 | 34 | 39.2 | 33.8 | 26.6 | 35.9 | 30.1 | 29.1
Cn1c(O)c(C=Nc2ccccc2Cl)c(=O)n(C)c1=O | 51.7 | > 100 | > 100 | > 100 | > 100 | 37.7 | > 100 | > 100 | > 100 | 49.5
COc1cc(Br)c(CC2C3=C(CCN2C(=O)C2CCC2)CC(=O)CC3)cc1O (stereo not given) | > 100 | 92.7 | > 100 | > 100 | > 100 | 95.8 | > 100 | > 100 | > 100 | 57
O=C1C(=Cc2ccc(Cl)c(Cl)c2)C([O-])=C([P+](c2ccccc2)(c2ccccc2)c2ccccc2)C([O-])=C1[P+](c1ccccc1)(c1ccccc1)c1ccccc1 | 9.23 | 4.9 | 4.48 | 7.14 | 6.47 | 4.18 | 6.34 | 19.3 | 6.75 | 3.74
CNc1ncnc2c1cnn2Cc1cn(COCC(O)CO)nn1 (stereo not given) | > 100 | – | > 100 | > 100 | > 100 | > 100 | > 100 | > 100 | > 100 | > 100
Cc1ccc([N+](=O)[O-])c2c(NCC(O)CO)ccnc12 (stereo not given) | > 100 | 44.6 | > 100 | > 100 | > 100 | > 100 | > 100 | > 100 | > 100 | > 100
CN(C)CCCNCc1cccc2ccccc12 | > 100 | > 100 | > 100 | > 100 | > 100 | > 100 | > 100 | > 100 | > 100 | > 100
O=c1ccc2ccc(O)cc2o1 | > 100 | > 100 | > 100 | > 100 | > 100 | > 100 | > 100 | > 100 | > 100 | > 100
C=C1CN(C2=NCCO2)C1 | > 100 | > 100 | – | > 100 | > 100 | > 100 | > 100 | > 100 | > 100 | > 100
C=CC(C)(C)C(=C)C(=O)Nc1ccccc1I | > 100 | – | > 100 | > 100 | > 100 | > 100 | – | > 100 | > 100 | > 100
CC(C)(C)CC(C)(C)c1ccc(O)c(C[N+](C)(C)[O-])c1 | > 100 | > 100 | > 100 | > 100 | > 100 | > 100 | > 100 | > 100 | > 100 | > 100
OC1C[C@H](c2ccccc2)C2(C(O)c3ccccc3C2O)[C@@H](c2ccccc2)C1 (stereo not given in full) | > 100 | > 100 | > 100 | > 100 | > 100 | > 100 | > 100 | > 100 | > 100 | > 100
CCOC(=O)C(NC(=O)OC(C)(C)C)C(=O)OCC | > 100 | – | > 100 | – | > 100 | > 100 | > 100 | > 100 | > 100 | –
Cc1cc(S(=O)(=O)/N=C(/NN)NNc2cccc(C(F)(F)F)n2)c(S)cc1Cl | > 100 | 42.1 | 53 | 46 | > 100 | 47.9 | – | 46.2 | 39.3 | 62.7
CCC(NC1=NCCO1)c1cccs1 (stereo not given) | > 100 | 25.7 | 27.3 | 37.1 | – | 28.7 | 39.3 | > 100 | > 100 | 30.6
Cc1ccc(NC(=O)CSC(N)=O)cc1C | > 100 | > 100 | – | > 100 | > 100 | > 100 | > 100 | > 100 | > 100 | > 100
CN(Cc1cc(Cl)c(Cl)cc1NC(=O)CN)[C@H]1CCCC[C@@H]1N1CCCC1 | – | 33.6 | > 100 | > 100 | > 100 | 33 | > 100 | > 100 | > 100 | > 100
Cc1c(C(=O)O)n2cnnc2c2ccccc12 | > 100 | – | > 100 | > 100 | > 100 | > 100 | > 100 | > 100 | > 100 | > 100
O=[N+]([O-])C(Cl)=C/C(=C(\Cl)SCc1ccccc1)[N+](=O)[O-] | – | 57.8 | > 100 | 75.9 | 45.3 | 71.2 | 91 | > 100 | 59.3 | 32
CC1=NN(c2nc(N)nc(CF)n2)C(C)(C)C1 | > 100 | – | > 100 | > 100 | – | > 100 | > 100 | > 100 | > 100 | –
O=C(CSc1nc2ccccc2c(=O)n1-c1ccccc1)N=Nc1c(O)[nH]c2ccc(F)cc12 | 4.65 | – | 3.75 | – | – | 5.05 | – | 5.48 | 15.2 | 3.91
